Results from patent publication US20100144872A1, “New Methylenebisphenyl Compounds Useful in the Treatment of Inflammation” (Biolipox AB, priority 2007, published 2010).

target: T1, Recombinant human LTC4 synthase (Homo sapiens, UniProt Q16873); test: LTC4 synthase assay (conversion of LTA4 methyl ester to LTC4 methyl ester, HPLC); format: biochemical; settings: biological test described above; PBS pH 7.4 with 5 mM GSH, substrate LTA4 methyl ester
T1 construct: made in house; host or cells: Pichia pastoris ('Piccia pastoralis' [sic])
T1 sequence (Q16873 1-150): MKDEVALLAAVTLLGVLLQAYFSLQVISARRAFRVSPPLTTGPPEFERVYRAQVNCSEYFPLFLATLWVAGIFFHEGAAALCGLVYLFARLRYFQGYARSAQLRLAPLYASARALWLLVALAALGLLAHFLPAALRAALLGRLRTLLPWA
Protocol: In the assay LTC4 synthase catalyses the reaction where the substrate LTA4 methyl ester is converted to LTC4 methyl ester. Recombinant human LTC4 synthase is expressed in Piccia pastoralis and the purified enzyme is dissolved in 25 mM Tris-buffer pH 7.8 and stored at −20° C. The assay is performed in phosphate buffered saline (PBS) pH 7.4, supplemented with 5 mM glutathione (GSH). The reaction is terminated by addition of acetonitrile/MeOH/acetic acid (50/50/1). The assay is performed at it in 96-well plates. Analysis of the formed LTC4 methyl ester is performed with reversed phase HPLC (Waters 2795 utilizing an Onyx Monolithic C18 column). The mobile phase consists of acetonitrile/MeOH/H2O (32.5/30/37.5) with 1% acetic acid pH adjusted with NH3 to pH 5.6, and absorbance measured at 280 nm with a Waters 2487 UV-detector.
The following is added chronologically to each well: • 1. 50 μl assay buffer, PBS with 5 mM GSH. • 2. 0.5 μl inhibitor in DMSO. • 3. 2 μl LTC4 synthase in PBS. The total protein concentration in this solution is 0.025 mg/ml. Incubation of the plate at room temperature for 10 minutes. • 4. 0.5 μl LTA4 methyl ester. Incubation of the plate at it for 1 min. • 5. 50 μl stop solution. 80 μl of the incubation mixture is analysed with HPLC.

Row | IC50 | SMILES
1 | 3400 nM | O=C(O)c1ccccc1Nc1ccc(Cc2ccc(Nc3ccccc3C(=O)O)c(C(=O)O)c2)cc1C(=O)O [Example 9, 5,5′-methylenebis(2-(2-carboxyphenyl-amino)benzoic acid)]
2 | 2800 nM | Nc1ccc(Cc2ccc(Nc3ccc(F)cc3)c(C(=O)O)c2)cc1C(=O)O [Example 12, 2-amino-5-(3-carboxy-4-(4-fluoro-phenylamino)benzyl)benzoic acid]
3 | 3400 nM | Cc1ccc(CNc2ccc(Cc3ccc(NCc4ccc(C)cc4)c(C(=O)O)c3)cc2C(=O)O)cc1 [Example 89, 5-(3-Carboxy-4-(4-methyl-benzylamino)-benzyl)-2-(4-methyl-benzylamino)-benzoic acid]
4 | 740 nM | Nc1ccc(Cc2ccc(Nc3ccc(Br)cc3F)c(C(=O)O)c2)cc1C(=O)O [Example 8, 2-amino-5-(4-(4-bromo-2-fluorophenyl-amino)-3-carboxybenzyl)benzoic acid]
5 | 6410 nM | CC(C)Oc1ccc(Nc2ccc(Cc3ccc(N)c(C(=O)O)c3)cc2C(=O)O)cc1 [Example 27, 2-amino-5-(3-carboxy-4-(4-isopropoxy-phenylamino)benzyl)benzoic acid]
6 | 5700 nM | Nc1ccc(Cc2ccc(Nc3ccc(F)c(Cl)c3)c(C(=O)O)c2)cc1C(=O)O [Example 6, 2-amino-5-(3-carboxy-4-(3-chloro-4-fluorophenylamino)benzyl)benzoic acid]

More lines, now with the values behind:

Row | SMILES | IC50
7 | CC(=O)Nc1ccc(S(=O)(=O)Nc2ccc(Cc3ccc(NS(=O)(=O)c4ccc(NC(C)=O)c(Cl)c4)c(C(=O)O)c3)cc2C(=O)O)cc1Cl [Example 67, 5,5′-methylenebis(2-(4-acetamido-3-chlorophenylsulfonamido)benzoic acid)] | 2800 nM
8 | COc1cccc(NC(=O)Nc2ccc(Cc3ccc(NC(=O)Nc4cccc(OC)c4)c(C(=O)O)c3)cc2C(=O)O)c1 [Example 55, 5,5′-methylenebis-(2-(3-(3-methoxyphenyl)-ureido)benzoic acid)] | 1800 nM
9 | O=C(O)c1cc(Cc2ccc(NS(=O)(=O)c3ccccc3C(F)(F)F)c(C(=O)O)c2)ccc1NS(=O)(=O)c1ccccc1C(F)(F)F [Example 69, 5,5′-methylenebis(2-(2-(trifluoromethyl)phenylsulfonamido)benzoic acid)] | 1300 nM
10 | O=C(Nc1ccc(Cc2ccc(NC(=O)Nc3c(Cl)cccc3Cl)c(C(=O)O)c2)cc1C(=O)O)Nc1c(Cl)cccc1Cl [Example 62, 5,5′-methylenebis-(2-(3-(2,6-dichlorophenyl)-ureido)benzoic acid)] | 5800 nM
11 | O=C(O)c1cc(Cc2ccc(NCc3cccc(OCc4ccccc4)c3)c(C(=O)O)c2)ccc1NCc1cccc(OCc2ccccc2)c1 [Example 93] | 2300 nM
12 | O=C(O)c1cc(Cc2ccc(NS(=O)(=O)c3cc(C(F)(F)F)cc(C(F)(F)F)c3)c(C(=O)O)c2)ccc1NS(=O)(=O)c1cc(C(F)(F)F)cc(C(F)(F)F)c1 [Example 74, 5,5′-methylenebis(2-(3,5-bis(trifluoromethyl)-phenylsulfonamido)benzoic acid)] | 700 nM
13 | O=C(Nc1ccccc1F)Nc1ccc(Cc2ccc(NC(=O)Nc3ccccc3F)c(C(=O)O)c2)cc1C(=O)O [Example 57, 5,5′-methylenebis-(2-(3-(2-fluorophenyl)-ureido)benzoic acid)] | 4000 nM
